Key:
[1] = system: contractile response of isolated guinea-pig ileum to angiotensin I; assay: Inhibition of contractile response of isolated guinea-pig ileum to angiotensin I (bioassay of angiotensin-converting enzyme inhibitory activity); conditions: angiotensin I 0.1 μg/ml, Tyrode's solution 30° C., compound added 5 minutes before, read-out: Angiotensin I IC50: concentration of compound producing 50% inhibition of the contractive action of angiotensin I on the guinea-pig ileum
Description: As the method of measurement of angiotensin-converting enzyme activity, bioassay for the contractile response of isolated smooth muscle or the pressor response of normal animals and biochemical assay for the enzyme isolated from lung or other organs of animals are known. The former is found more advantageous than the latter for the examination of the convertion of angiotensin I to angiotensin II in vivo.
In the present study, therefore, we adopted the bioassay for contractile response of isolated guinea-pig ileum to angiotensin I.
(§1) Isolated guinea-pig ileum was suspended in the organ bath containing 20 ml of Tyrode's solution of 30° C. gassed with 95% O2 +5% CO2. The contraction induced by the addition of angiotensin I (0.1 μg/ml) at intervals of 10 minutes was recorded on a recticorder (Nihon Koden) for 90 seconds using FD pick up (ST-1T-H, Nihon Koden).
(§2) The test compounds were added to the bath 5 minutes before the addition of angiotensin I.
The inhibitory activity of angiotensin-converting enzyme was calculated by the following formula. [formula]

[2] = system: contractile response to bradykinin; assay: Augmentation of contractile response of isolated guinea-pig ileum to bradykinin; conditions: bradykinin 0.005 μg/ml, compound added 5 minutes before, read-out: Bradykinin AC50: concentration of compound producing 50% augmentation of the contractive action of bradykinin on the guinea-pig ileum
Protocol: as §1, §2
From the fact that kininase II, which destroys bradykinin having contractile action of isolated guinea-pig ileum, is thought to be identical with angiotensin-converting enzyme, augmentation of the contractile response to bradykinin by test compounds was examined by using bradykinin (0.005 μg/ml) in place of angiotensin I according to the above mentioned method.

[3] = molecular target: T1, angiotensin-converting enzyme (Oryctolagus cuniculus, UniProt P12822); assay: Inhibitory activity of angiotensin-converting enzyme extracted from rabbit lung (spectrophotometry, HHL substrate); type: biochemical; conditions: 5 mM HHL, pH 8.3, 37° C., 30 minutes, read-out: Angiotensin-converting enzyme IC50: concentration of compound producing 50% inhibition against angiotensin-converting enzyme
T1 construct: extracted from rabbit lung; from tissue; host or cells: rabbit lung
T1 sequence (P12822 34-1310): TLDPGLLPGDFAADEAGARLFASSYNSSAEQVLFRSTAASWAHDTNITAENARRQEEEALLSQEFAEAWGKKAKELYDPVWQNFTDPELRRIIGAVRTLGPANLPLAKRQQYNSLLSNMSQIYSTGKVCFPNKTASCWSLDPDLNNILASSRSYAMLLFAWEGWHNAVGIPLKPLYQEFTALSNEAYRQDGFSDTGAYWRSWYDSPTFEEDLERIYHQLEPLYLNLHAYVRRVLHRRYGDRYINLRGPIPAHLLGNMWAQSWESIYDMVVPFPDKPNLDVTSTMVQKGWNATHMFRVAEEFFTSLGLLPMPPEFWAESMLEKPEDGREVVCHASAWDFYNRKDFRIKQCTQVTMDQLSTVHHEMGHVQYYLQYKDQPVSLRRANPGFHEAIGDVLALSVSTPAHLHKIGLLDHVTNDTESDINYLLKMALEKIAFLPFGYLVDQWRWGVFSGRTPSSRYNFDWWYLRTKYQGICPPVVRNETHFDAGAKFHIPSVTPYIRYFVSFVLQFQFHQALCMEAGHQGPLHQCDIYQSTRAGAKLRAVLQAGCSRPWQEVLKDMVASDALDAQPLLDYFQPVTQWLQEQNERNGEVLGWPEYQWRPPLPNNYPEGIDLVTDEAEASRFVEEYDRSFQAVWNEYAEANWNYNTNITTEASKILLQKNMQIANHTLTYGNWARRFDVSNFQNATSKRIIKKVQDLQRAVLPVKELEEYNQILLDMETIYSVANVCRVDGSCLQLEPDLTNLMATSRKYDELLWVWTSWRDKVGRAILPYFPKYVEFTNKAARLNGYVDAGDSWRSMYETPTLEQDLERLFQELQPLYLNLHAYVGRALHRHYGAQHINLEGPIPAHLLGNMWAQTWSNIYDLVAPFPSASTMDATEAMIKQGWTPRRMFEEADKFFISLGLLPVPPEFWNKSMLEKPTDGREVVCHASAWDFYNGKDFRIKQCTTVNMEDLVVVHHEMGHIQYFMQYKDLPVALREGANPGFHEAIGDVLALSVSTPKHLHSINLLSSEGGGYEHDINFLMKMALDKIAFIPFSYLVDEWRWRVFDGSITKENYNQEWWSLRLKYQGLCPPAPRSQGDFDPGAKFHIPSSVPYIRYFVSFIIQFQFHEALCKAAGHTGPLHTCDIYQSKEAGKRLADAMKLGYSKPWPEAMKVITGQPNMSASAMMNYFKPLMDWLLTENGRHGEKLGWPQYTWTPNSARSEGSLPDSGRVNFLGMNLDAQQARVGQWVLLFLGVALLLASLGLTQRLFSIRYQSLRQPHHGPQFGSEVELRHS
Protocol: The activity of angiotensin-converting enzyme was measured by spectrophotometry according to the method of Biochem. Pharmacol., 20. 1637 (1971). That is, the absorbance of hippuric acid was measured, which is liberated by incubating hippuryl-L-histidyl-L-leucine (HHL) as substrate in the presence of angiotensin-converting enzyme extracted from rabbit lung. The reaction mixture is as follows: 100 mM phosphate buffer (pH 8.3) 300 mM sodium chloride 5 mM HHL […] enzyme inhibitor 5 mU enzyme 0.25 ml of the above mixture was incubated at 37° C. for 30 minutes and the reaction was stopped by adding 0.25 ml of 1 N hydrochloric acid. […] The absorbance of this solution was measured at 228 nm.

Acute toxicity test = type: in vivo; conditions: mouse, in vivo, ip
Protocol: (§3) The male ddy-std strain mice (4 weeks of age, weighing 19-21 g) were placed in a breeding room of constant temperature and humidity (23±1° C., 55±5%) and fed freely pellet diet (CE-2, Clea Japan Inc.) and water ad. libitum for a week. The mice showing the normal growth were selected for the experiment.
(§4) Test compounds are suspended in 0.5% tragacanth solution, and administered intraperitoneally in a dose of 0.5 ml of 20 g body weight.

male ddy-std strain mice = assay: Acute toxicity test; type: in vivo; conditions: male ddy-std mice, intraperitoneally
Protocol: as §3, §4

| IC50 [1] [nM] | IC50 [3] [nM] | Compound | AC50 [2] [nM] | LD50 (Acute toxicity test) [mg/kg] | Acute toxicity (result in words) (male ddy-std strain mice) |
| --- | --- | --- | --- | --- | --- |
| 160 | 1100 | C[C@H](CS)C(=O)N1C(C(=O)O)CCC1c1ccccc1O (single isomer, unassigned) [Compound C] | 2 | – | – |
| 150 | 1200 | C[C@H](CS)C(=O)N1C(C(=O)O)CCC1c1ccccc1O (single isomer, unassigned) [Compound D] | 2.6 | – | – |
| 170 | – | C[C@H](CS)C(=O)N1CSC[C@H]1C(=O)O [Compound Z, (4R)-3-[(2S)-3-mercapto-2-methylpropanoyl]-4-thiazolidinecarboxylic acid, reference compound] | 2.6 | – | – |
| 480 | 440 | O=C(O)C1CCC(c2ccc(O)cc2)N1C(=O)CCS (stereo not drawn) [Compound B, α-5-(4-hydroxyphenyl)-1-(3-mercaptopropanoyl)-2-pyrrolidinecarboxylic acid] | 9.8 | – | – |

| Compound | IC50 [1] [nM] | IC50 [3] [nM] | AC50 [2] [nM] | LD50 (Acute toxicity test) [mg/kg] | Acute toxicity (result in words) (male ddy-std strain mice) |
| --- | --- | --- | --- | --- | --- |
| O=C(O)C1CCC(c2ccccc2O)N1C(=O)CCS (stereo not drawn) [Compound E, α1-5-(2-hydroxyphenyl)-1-(3-mercaptopropanoyl)-2-pyrrolidinecarboxylic acid] | 76 | 65 | 0.95 | – | – |
| O=C(O)C1CCC(c2ccccc2O)N1C(=O)CCS (stereo not drawn) [Compound A, α-5-(2-hydroxyphenyl)-1-(3-mercaptopropanoyl)-2-pyrrolidinecarboxylic acid] | 170 | 560 | 1.8 | 1000 to 1250 | low |

Reference: patent US4264620A, “Antihypertensive 5-substituted 2-pyrrolidinecarboxylic acids” (Santen Pharmaceutical Co., Ltd., priority 1978, dated 1981)
